From patent US9127303B2, “Method for detection of beta-D-glucuronidase activity in a sample” (Biosynth AG, priority 2011, dated 2015)

How the values were obtained:
[1] = system: Acinetobacter baumanii; test: Detection of microbial beta-D-glucuronidase in broth cultures in test tubes; type: cell-based; parameters: key: positive (pink colour); negative (yellow colour); conditions: 1 strain, NB, 0.1 mM, 37° C., 16 hours
Description: (§1) Resorufin-beta-D-glucuronic acid or Resorufin-beta-D-glucuronic acid methyl ester was added to test tubes containing 3 ml of Nutrient Broth (NB: 5 g/l peptone, 5 g/l NaCl, 2 g/l yeast extract, 1 g/l beef extract, pH 7.4) or Tryptone Bile Broth (TBB: 20 g/l tryptone, 1.5 g/l bile salts No. 3) at a concentration of 0.1 mM. Tubes were inoculated with cultures pregrown over night on NB and incubated at 37° C. for 16 hours. Tubes were scored visually for beta-D-glucuronidase activity as positive (pink colour) or negative (yellow colour). Both substrates gave the same results for all strains tested (Table 1), showing that the Resorufin-beta-D-glucuronic acid methyl ester can be used in place of the Resorufin-beta-D-glucuronic acid for detection of E. coli.

[2] = system: Aeromonas hydrophila; test: as above; type: cell-based; parameters: key: positive (pink colour); negative (yellow colour); conditions: 1 strain, TBB, 0.1 mM, 37° C., 16 hours
Description: as §1

[3] = system: Bacillus cereus; test: as above; type: cell-based; parameters: key: positive (pink colour); negative (yellow colour); conditions: 1 strain, NB, 0.1 mM, 37° C., 16 hours
Description: as §1

[4] = system: Citrobacter freundii; test: as above; type: cell-based; parameters: key: positive (pink colour); negative (yellow colour); conditions: 1 strain, TBB, 0.1 mM, 37° C., 16 hours
Description: as §1

[5] = system: Enterobacter aerogenes; test: as above; type: cell-based; parameters: key: positive (pink colour); negative (yellow colour); conditions: 1 strain, TBB, 0.1 mM, 37° C., 16 hours
Description: as §1

[6] = system: Enterobacter cloacae; test: as above; type: cell-based; parameters: key: positive (pink colour); negative (yellow colour); conditions: 1 strain, NB, 0.1 mM, 37° C., 16 hours
Description: as §1

[7] = system: Enterococcus faecalis; test: as above; type: cell-based; parameters: key: positive (pink colour); negative (yellow colour); conditions: 1 strain, TBB, 0.1 mM, 37° C., 16 hours
Description: as §1

[8] = system: Escherichia coli O157:H7; test: as above; type: cell-based; parameters: key: positive (pink colour); negative (yellow colour); conditions: Escherichia coli O157:H7, 2 strains, TBB, 0.1 mM, 37° C., 16 hours
Description: as §1

[9] = system: Escherichia coli; test: as above; type: cell-based; parameters: key: positive (pink colour); negative (yellow colour); conditions: 19 strains, TBB, 0.1 mM, 37° C., 16 hours
Description: as §1

[10] = system: Hafnia alvei; test: as above; type: cell-based; parameters: key: positive (pink colour); negative (yellow colour); conditions: 1 strain, NB, 0.1 mM, 37° C., 16 hours
Description: as §1

[11] = system: Klebsiella pneumoniae; test: as above; type: cell-based; parameters: key: positive (pink colour); negative (yellow colour); conditions: 1 strain, TBB, 0.1 mM, 37° C., 16 hours
Description: as §1

[12] = system: Proteus vulgaris; test: as above; type: cell-based; parameters: key: positive (pink colour); negative (yellow colour); conditions: 1 strain, NB, 0.1 mM, 37° C., 16 hours
Description: as §1

[13] = system: Pseudomonas aeruginosa; test: as above; type: cell-based; parameters: key: positive (pink colour); negative (yellow colour); conditions: 1 strain, TBB, 0.1 mM, 37° C., 16 hours
Description: as §1

[14] = system: Salmonella Enteritidis; test: as above; type: cell-based; parameters: key: positive (pink colour); negative (yellow colour); conditions: 1 strain, TBB, 0.1 mM, 37° C., 16 hours
Description: as §1

[15] = system: Salmonella Typhimurium; test: as above; type: cell-based; parameters: key: positive (pink colour); negative (yellow colour); conditions: 1 strain, NB, 0.1 mM, 37° C., 16 hours
Description: as §1

[16] = system: Serratia marcescens; test: as above; type: cell-based; parameters: key: positive (pink colour); negative (yellow colour); conditions: 1 strain, TBB, 0.1 mM, 37° C., 16 hours
Description: as §1

[17] = system: Staphylococcus aureus; test: as above; type: cell-based; parameters: key: positive (pink colour); negative (yellow colour); conditions: 1 strain, NB, 0.1 mM, 37° C., 16 hours
Description: as §1

[18] = system: Staphylococcus haemolyticus; test: as above; type: cell-based; parameters: key: positive (pink colour); negative (yellow colour); conditions: 1 strain, NB, 0.1 mM, 37° C., 16 hours
Description: as §1

[19] = system: Vibrio parahaemolyticus; test: as above; type: cell-based; parameters: key: positive (pink colour); negative (yellow colour); conditions: 1 strain, NB, 0.1 mM, 37° C., 16 hours
Description: as §1

[20] = system: Yersinia enterocolitica; test: as above; type: cell-based; parameters: key: positive (pink colour); negative (yellow colour); conditions: 1 strain, NB, 0.1 mM, 37° C., 16 hours
Description: as §1

[21] = system: beta-D-glucuronidase positive strains (Escherichia coli); test: Detection of microbial beta-D-glucuronidase activity in broth cultures in microtiter plates; type: cell-based; conditions: NB, 0.1 mM, 37° C., 20 hours; for Fluorescence (excitation 570 nm, emission 600 nm) over time: about 10 cfu
Description: (§2) Fluorescence in arbitrary units (RFU, relative fluorescence units) is plotted vs. time (h).
(§3) Wells of a microtiter plate were filled with Nutrient Broth (NB: 5 g/l peptone, 5 g/l NaCl, 2 g/l yeast extract, 1 g/l beef extract, pH 7.4) containing Resorufin-beta-D-glucuronic acid or Resorufin-beta-D-glucuronic acid methyl ester at concentrations of 0.1 mM. The wells were inoculated with about 10 cfu of cultures pregrown over night on NB and incubated at 37° C. for 20 hours. Fluorescence was measured every 20 minutes at an excitation wavelength of 570 nm and an emission wavelength of 600 nm (FIG. 1).

[22] = system: beta-D-glucuronidase negative strains; test: as above; type: cell-based, Citrobacter freundii, Salmonella enteritidis; conditions: NB, 0.1 mM, 37° C., 20 hours
Description: as §2, §3

[23] = molecular target: beta-D-glucuronidase (type VII-A from E. coli) (Escherichia coli, UniProt P05804); test: Enzymatic assay with purified beta-D-glucuronidase; type: biochemical; conditions: 0.1 mM, pH 6.8, 37° C., 1 hour
Chain of beta-D-glucuronidase (type VII-A from E. coli) (P05804 whole entry): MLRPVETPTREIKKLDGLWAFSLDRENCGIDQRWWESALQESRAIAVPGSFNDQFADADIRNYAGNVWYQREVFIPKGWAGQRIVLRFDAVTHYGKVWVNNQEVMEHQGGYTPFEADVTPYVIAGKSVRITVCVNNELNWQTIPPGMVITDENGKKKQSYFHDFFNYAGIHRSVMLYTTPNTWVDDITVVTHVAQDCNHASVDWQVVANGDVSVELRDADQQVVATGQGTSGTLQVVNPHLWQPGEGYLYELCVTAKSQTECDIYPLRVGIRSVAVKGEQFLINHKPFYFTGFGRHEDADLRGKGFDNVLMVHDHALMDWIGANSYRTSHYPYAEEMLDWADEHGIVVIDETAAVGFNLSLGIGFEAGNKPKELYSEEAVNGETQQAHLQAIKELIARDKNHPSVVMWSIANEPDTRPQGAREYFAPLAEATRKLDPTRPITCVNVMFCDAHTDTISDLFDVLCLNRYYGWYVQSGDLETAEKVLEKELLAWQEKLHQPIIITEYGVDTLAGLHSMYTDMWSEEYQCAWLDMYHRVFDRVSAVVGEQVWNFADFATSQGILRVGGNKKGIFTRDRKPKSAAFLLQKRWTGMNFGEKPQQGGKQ
Description: (§4) Resorufin-beta-D-glucuronic acid or Resorufin-beta-D-glucuronic acid methyl ester was incubated in presence of glucuronidase, esterase, both enzymes or without enzyme. Measurements were done in microtiter plates at 37° C. in a Spectramax M5 platereader (λex=570 nm, λem=600 nm). Fluorescence in arbitrary units (RFU, relative fluorescence units) is plotted vs. time (min).
(§5) Wells of a microtiter plate were filled with buffer (35 mM potassium phosphate, 4.7 mg/ml bovine serum albumin, pH 6.8) containing Resorufin-beta-D-glucuronic acid or Resorufin-beta-D-glucuronic acid methyl ester at concentrations of 0.1 mM. To the wells were added either a) 0.3 unit beta-D-glucuronidase (type VII-A from E. coli) or b) 10 units esterase (from porcine liver) or c) 0.3 unit beta-D-glucuronidase and 10 units esterase or d) no enzyme. The microtiter plate was incubated at 37° C. for 1 hour. Fluorescence was measured every 1.5 minutes at an excitation wavelength of 570 nm and an emission wavelength of 600 nm (FIG. 2).

[24] = system: esterase (from porcine liver); test: Enzymatic assay with esterase only; type: biochemical; conditions: 10 units esterase only, 0.1 mM, pH 6.8, 37° C., 1 hour
Description: as §4, §5

[25] = system: E. coli culture; test: Detection of microbial beta-D-glucuronidase in preincubated medium; type: cell-based; conditions: NB with 0.2 mM, preincubated 21 h, 3.5 h, 0 h at 37° C., E. coli about 10^8 cfu/ml
Description: The media with the Resorufin-beta-D-glucuronic acid methyl ester were preincubated for different time periods. Measurements were done in microtiter plates at 37° C. in a Spectramax M5 platereader (λex=570 nm, λem=600 nm). Fluorescence in arbitrary units (RFU, relative fluorescence units) is plotted vs. time (min).
(§6) Wells of a microtiter plate were filled with 100 μl Nutrient Broth (NB: 5 g/l peptone, 5 g/l NaCl, 2 g/l yeast extract, 1 g/l beef extract, pH 7.4) containing Resorufin-beta-D-glucuronic acid or Resorufin-beta-D-glucuronic acid methyl ester at concentrations of 0.2 mM. The wells were incubated for different times (21 h, 3.5 h, 0 h) at 37° C. After incubation, 100 μl of an E. coli culture pregrown over night on NB was added (about 10^8 cfu/ml). Fluorescence was measured every 1.5 minutes at an excitation wavelength of 570 nm and an emission wavelength of 600 nm (FIG. 3). The longer the preincubation time of the medium, the more Resorufin-beta-D-glucuronic acid originated from the Resorufin-beta-D-glucuronic acid methyl ester through hydrolysis.

[26] = Hydrolysis of the methyl ester in Nutrient Broth medium; type: physicochemical; conditions: pH 7.4, 37° C.
Description: as §6

[27] = 0.3 unit beta-D-glucuronidase and 10 units esterase
[28] = 0.3 unit beta-D-glucuronidase without esterase

Compound | Result, beta-D-glucuronidase activity scored visually [1] | Result, beta-D-glucuronidase activity scored visually [2] | Result, beta-D-glucuronidase activity scored visually [3] | Result, beta-D-glucuronidase activity scored visually [4] | Result, beta-D-glucuronidase activity scored visually [5] | Result, beta-D-glucuronidase activity scored visually [6] | Result, beta-D-glucuronidase activity scored visually [7] | Result, beta-D-glucuronidase activity scored visually [8] | Result, beta-D-glucuronidase activity scored visually [9] | Result, beta-D-glucuronidase activity scored visually [10] | Result, beta-D-glucuronidase activity scored visually [11] | Result, beta-D-glucuronidase activity scored visually [12] | Result, beta-D-glucuronidase activity scored visually [13] | Result, beta-D-glucuronidase activity scored visually [14] | Result, beta-D-glucuronidase activity scored visually [15] | Result, beta-D-glucuronidase activity scored visually [16] | Result, beta-D-glucuronidase activity scored visually [17] | Result, beta-D-glucuronidase activity scored visually [18] | Result, beta-D-glucuronidase activity scored visually [19] | Result, beta-D-glucuronidase activity scored visually [20] | also measured
COC(=O)[C@H]1O[C@@H](Oc2ccc3nc4ccc(=O)cc-4oc3c2)[C@H](O)[C@@H](O)[C@@H]1O [Resorufin-beta-D-glucuronic acid methyl ester] | negative | negative | negative | negative | negative | negative | negative | negative | positive | negative | negative | negative | negative | negative | negative | negative | negative | negative | negative | negative | Speed of increase in fluorescence compared with Resorufin-beta-D-glucuronic acid [21]: a little slower; Fluorescence (excitation 570 nm, emission 600 nm) over time [21]: increase in fluorescence; Fluorescence (excitation 570 nm, emission 600 nm) over time [22]: only low background signal; Fluorescence (excitation 570 nm, emission 600 nm) over time [23, 27]: fast increase of fluorescence; Fluorescence (excitation 570 nm, emission 600 nm) over time [23, 28]: only a slow increase of fluorescence; Fluorescence (excitation 570 nm, emission 600 nm) over time [24]: low background signal; Fluorescence signal after adding E. coli culture, compared with Resorufin-beta-D-glucuronic acid medium [25]: gets closer to the signal from media originally containing the Resorufin-beta-D-glucuronic acid with longer preincubation time; Hydrolysis of the methyl ester to Resorufin-beta-D-glucuronic acid in medium [26]: surprisingly fast
O=C([O-])C1OC(Oc2ccc3nc4ccc(=O)cc-4oc3c2)C(O)C(O)C1O.[Na+] [Resorufin-beta-D-glucuronic acid, reference compound] | negative | negative | negative | negative | negative | negative | negative | negative | positive | negative | negative | negative | negative | negative | negative | negative | negative | negative | negative | negative | Fluorescence (excitation 570 nm, emission 600 nm) over time [21]: increase in fluorescence; Fluorescence (excitation 570 nm, emission 600 nm) over time [22]: only low background signal; Fluorescence (excitation 570 nm, emission 600 nm) over time [23, 27]: fast increase of fluorescence; Fluorescence (excitation 570 nm, emission 600 nm) over time [23, 28]: fast increase of fluorescence; Fluorescence (excitation 570 nm, emission 600 nm) over time [24]: low background signal
